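Cultured in 96-well plates, cells were exposed to test compound for 48 hours across five concentrations. The concentration for 50% growth inhibition is given as GI50. TGI marks complete inhibition of growth.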
Experiments:
Assay in all cases: DTP human tumour cell line panel, 48 h
IGROV1 ovarian = system: IGROV1 ovarian
HOP-92 NSCLC = system: HOP-92 NSCLC
LOX IMVI melanoma = system: LOX IMVI melanoma
PC-3 prostate = system: PC-3 prostate
SK-OV-3 ovarian = system: SK-OV-3 ovarian
HL-60(TB) leukemia = system: HL-60(TB) leukemia
MOLT-4 leukemia = system: MOLT-4 leukemia
K-562 leukemia = system: K-562 leukemia
SF-539 CNS = system: SF-539 CNS
RPMI-8226 leukemia = system: RPMI-8226 leukemia

Cc1cccc(Nc2cc(Cl)nc(SCC(=O)O)n2)c1C
TGI (IGROV1 ovarian): > 100 µM
TGI (HOP-92 NSCLC): > 100 µM
TGI (LOX IMVI melanoma): > 100 µM
TGI (PC-3 prostate): > 100 µM
TGI (SK-OV-3 ovarian): > 100 µM
TGI (HL-60(TB) leukemia): > 100 µM
TGI (MOLT-4 leukemia): > 100 µM
TGI (K-562 leukemia): > 100 µM
TGI (SF-539 CNS): > 100 µM
TGI (RPMI-8226 leukemia): > 100 µM

CCOc1ccc(C(C)=O)cc1NC(=O)c1cccc(-c2nnn(CC)n2)c1
GI50 (IGROV1 ovarian): 5.7 µM
TGI (IGROV1 ovarian): > 100 µM
GI50 (HOP-92 NSCLC): 0.418 µM
TGI (HOP-92 NSCLC): 49.4 µM
GI50 (LOX IMVI melanoma): 0.59 µM
TGI (LOX IMVI melanoma): 70.2 µM
GI50 (PC-3 prostate): 0.481 µM
TGI (PC-3 prostate): > 100 µM
GI50 (SK-OV-3 ovarian): 0.689 µM
TGI (SK-OV-3 ovarian): 24.8 µM
GI50 (MOLT-4 leukemia): 0.682 µM
TGI (MOLT-4 leukemia): > 100 µM
GI50 (K-562 leukemia): 0.454 µM
TGI (K-562 leukemia): > 100 µM
GI50 (SF-539 CNS): 0.346 µM
TGI (SF-539 CNS): 3.54 µM
GI50 (RPMI-8226 leukemia): 1.22 µM
TGI (RPMI-8226 leukemia): > 100 µM

CC12OC(C(=O)C13CCC3)C1C(=O)c3ccc4c(ccc5ccccc54)c3C(=O)C12 (centres undefined)
GI50 (IGROV1 ovarian): 21.4 µM
TGI (IGROV1 ovarian): > 100 µM
GI50 (HOP-92 NSCLC): 5.02 µM
TGI (HOP-92 NSCLC): 21.2 µM
GI50 (PC-3 prostate): 7.61 µM
TGI (PC-3 prostate): 28.8 µM
GI50 (SK-OV-3 ovarian): 26.5 µM
TGI (SK-OV-3 ovarian): 80.5 µM
GI50 (HL-60(TB) leukemia): 5.15 µM
TGI (HL-60(TB) leukemia): 43.7 µM
GI50 (MOLT-4 leukemia): 3.67 µM
TGI (MOLT-4 leukemia): 53.6 µM
GI50 (K-562 leukemia): 3.27 µM
TGI (K-562 leukemia): 16 µM
GI50 (SF-539 CNS): 11.1 µM
TGI (SF-539 CNS): 66.8 µM

COc1ccc2nc3cccc([N+](=O)[O-])c3c(NCCNCCN(C)C)c2c1
GI50 (IGROV1 ovarian): 0.0195 µM
TGI (IGROV1 ovarian): 0.136 µM
GI50 (HOP-92 NSCLC): 0.0588 µM
TGI (HOP-92 NSCLC): 0.204 µM
GI50 (LOX IMVI melanoma): 0.0652 µM
TGI (LOX IMVI melanoma): 0.305 µM
TGI (PC-3 prostate): 0.293 µM
GI50 (SK-OV-3 ovarian): 0.279 µM
TGI (SK-OV-3 ovarian): 1.06 µM
GI50 (HL-60(TB) leukemia): 0.0449 µM
TGI (HL-60(TB) leukemia): 0.352 µM
GI50 (MOLT-4 leukemia): 0.022 µM
TGI (MOLT-4 leukemia): 0.192 µM
GI50 (K-562 leukemia): 0.0222 µM
TGI (K-562 leukemia): 0.0987 µM
GI50 (SF-539 CNS): 0.199 µM
TGI (SF-539 CNS): 0.429 µM
GI50 (RPMI-8226 leukemia): 0.0208 µM
TGI (RPMI-8226 leukemia): 0.106 µM

COc1ccc2[nH]c(C(=O)OCc3ccc4cccc(O)c4n3)cc2c1
GI50 (IGROV1 ovarian): 0.751 µM
TGI (IGROV1 ovarian): 2.08 µM
GI50 (HOP-92 NSCLC): 0.209 µM
TGI (HOP-92 NSCLC): 1.42 µM
GI50 (LOX IMVI melanoma): 0.779 µM
TGI (LOX IMVI melanoma): 2.14 µM
GI50 (PC-3 prostate): 0.247 µM
TGI (PC-3 prostate): 1.32 µM
GI50 (SK-OV-3 ovarian): 11.1 µM
TGI (SK-OV-3 ovarian): 23.2 µM
GI50 (HL-60(TB) leukemia): 1.18 µM
TGI (HL-60(TB) leukemia): 3.4 µM
GI50 (MOLT-4 leukemia): 0.641 µM
TGI (MOLT-4 leukemia): 2.99 µM
GI50 (K-562 leukemia): 0.283 µM
TGI (K-562 leukemia): 2.66 µM
GI50 (SF-539 CNS): 1.27 µM
TGI (SF-539 CNS): 2.53 µM
GI50 (RPMI-8226 leukemia): 0.288 µM
TGI (RPMI-8226 leukemia): 0.874 µM

CCc1nn2ncccc2c1-c1ccnc(NC2CC2)n1
GI50 (IGROV1 ovarian): > 25 µM
TGI (IGROV1 ovarian): > 25 µM
GI50 (HOP-92 NSCLC): > 6.73 µM
TGI (HOP-92 NSCLC): > 25 µM
GI50 (LOX IMVI melanoma): > 25 µM
TGI (LOX IMVI melanoma): > 25 µM
GI50 (PC-3 prostate): > 25 µM
TGI (PC-3 prostate): > 25 µM
GI50 (SK-OV-3 ovarian): > 25 µM
TGI (SK-OV-3 ovarian): > 25 µM
GI50 (HL-60(TB) leukemia): > 25 µM
TGI (HL-60(TB) leukemia): > 25 µM
GI50 (MOLT-4 leukemia): > 25 µM
TGI (MOLT-4 leukemia): > 25 µM
GI50 (K-562 leukemia): > 25 µM
TGI (K-562 leukemia): > 25 µM
GI50 (SF-539 CNS): > 25 µM
TGI (SF-539 CNS): > 25 µM
GI50 (RPMI-8226 leukemia): > 25 µM
TGI (RPMI-8226 leukemia): > 25 µM

COc1cc(-c2cc3ncccc3c3[nH]c(=O)c4cccnc4c23)cc(OC)c1OC
GI50 (IGROV1 ovarian): 3.61 µM
TGI (IGROV1 ovarian): > 100 µM
GI50 (HOP-92 NSCLC): 12.2 µM
TGI (HOP-92 NSCLC): > 100 µM
GI50 (LOX IMVI melanoma): 0.511 µM
TGI (LOX IMVI melanoma): > 100 µM
GI50 (PC-3 prostate): 0.858 µM
TGI (PC-3 prostate): > 100 µM
GI50 (SK-OV-3 ovarian): 1.35 µM
TGI (SK-OV-3 ovarian): > 100 µM
GI50 (MOLT-4 leukemia): 0.782 µM
TGI (MOLT-4 leukemia): 28.8 µM
GI50 (K-562 leukemia): 0.392 µM
TGI (K-562 leukemia): > 100 µM
GI50 (SF-539 CNS): 0.488 µM
TGI (SF-539 CNS): 5.84 µM
GI50 (RPMI-8226 leukemia): 1.3 µM
TGI (RPMI-8226 leukemia): 47.5 µM

O=C(O)Cn1ccc2ccccc21
GI50 (IGROV1 ovarian): 72.7 µM
TGI (IGROV1 ovarian): > 100 µM
TGI (HOP-92 NSCLC): > 100 µM
GI50 (LOX IMVI melanoma): > 100 µM
TGI (LOX IMVI melanoma): > 100 µM
GI50 (PC-3 prostate): > 100 µM
TGI (PC-3 prostate): > 100 µM
GI50 (SK-OV-3 ovarian): > 100 µM
TGI (SK-OV-3 ovarian): > 100 µM
GI50 (SF-539 CNS): > 100 µM
TGI (SF-539 CNS): > 100 µM
GI50 (RPMI-8226 leukemia): > 100 µM
TGI (RPMI-8226 leukemia): > 100 µM

Cc1cn2c(/C=N/N=C(N)N)c(-c3ccncc3)nc2s1
GI50 (IGROV1 ovarian): 22.1 µM
TGI (IGROV1 ovarian): 49.2 µM
GI50 (HOP-92 NSCLC): 13.4 µM
TGI (HOP-92 NSCLC): 26.9 µM
GI50 (LOX IMVI melanoma): 14.9 µM
TGI (LOX IMVI melanoma): 28.1 µM
GI50 (PC-3 prostate): 18.8 µM
TGI (PC-3 prostate): 32.8 µM
GI50 (HL-60(TB) leukemia): 19.7 µM
TGI (HL-60(TB) leukemia): 40.1 µM
GI50 (MOLT-4 leukemia): 7.74 µM
TGI (MOLT-4 leukemia): 32.2 µM
GI50 (K-562 leukemia): 15.4 µM
TGI (K-562 leukemia): 34 µM

CC(C)(C)c1nc(-c2cccc(NS(=O)(=O)c3c(F)cccc3F)c2F)c(-c2ccnc(N)n2)s1
GI50 (IGROV1 ovarian): 56.1 µM
TGI (IGROV1 ovarian): > 100 µM
GI50 (HOP-92 NSCLC): 35.5 µM
TGI (HOP-92 NSCLC): > 100 µM
GI50 (LOX IMVI melanoma): 0.233 µM
TGI (LOX IMVI melanoma): > 100 µM
GI50 (PC-3 prostate): 41.3 µM
TGI (PC-3 prostate): > 100 µM
GI50 (HL-60(TB) leukemia): 4.68 µM
TGI (HL-60(TB) leukemia): 37.4 µM
GI50 (MOLT-4 leukemia): 26.5 µM
TGI (MOLT-4 leukemia): > 100 µM
GI50 (K-562 leukemia): 25.6 µM
TGI (K-562 leukemia): > 100 µM
GI50 (SF-539 CNS): 39.2 µM
TGI (SF-539 CNS): > 100 µM
GI50 (RPMI-8226 leukemia): 24.1 µM
TGI (RPMI-8226 leukemia): 97 µM

Cc1nc(Sc2nc3ccc([N+](=O)[O-])cc3s2)sc1C
GI50 (IGROV1 ovarian): 3 µM
TGI (IGROV1 ovarian): 14.8 µM
GI50 (HOP-92 NSCLC): 2.54 µM
TGI (HOP-92 NSCLC): 7.55 µM
GI50 (LOX IMVI melanoma): 0.221 µM
TGI (LOX IMVI melanoma): 0.932 µM
GI50 (PC-3 prostate): 1.15 µM
TGI (PC-3 prostate): 7.63 µM
GI50 (SK-OV-3 ovarian): 4.38 µM
TGI (SK-OV-3 ovarian): 15.5 µM
GI50 (HL-60(TB) leukemia): 1.68 µM
TGI (HL-60(TB) leukemia): 4.6 µM
GI50 (MOLT-4 leukemia): 0.288 µM
TGI (MOLT-4 leukemia): 3.45 µM
GI50 (K-562 leukemia): 0.429 µM
TGI (K-562 leukemia): 8.97 µM
GI50 (RPMI-8226 leukemia): 1.8 µM
TGI (RPMI-8226 leukemia): 6.52 µM

COc1ccc(-c2nc(N)c(C#N)c3c2CCOc2c-3ccc3ccccc23)cc1
GI50 (HOP-92 NSCLC): 11.8 µM
TGI (HOP-92 NSCLC): 37.9 µM
GI50 (PC-3 prostate): 22 µM
TGI (PC-3 prostate): > 100 µM
GI50 (SK-OV-3 ovarian): 17.4 µM
TGI (SK-OV-3 ovarian): 55 µM
GI50 (HL-60(TB) leukemia): > 100 µM
TGI (HL-60(TB) leukemia): > 100 µM
GI50 (MOLT-4 leukemia): > 100 µM
TGI (MOLT-4 leukemia): > 100 µM
GI50 (K-562 leukemia): > 100 µM
TGI (K-562 leukemia): > 100 µM
GI50 (SF-539 CNS): 21.2 µM
TGI (SF-539 CNS): 52.6 µM

O=C(CN(/C=C/C(=O)C(F)(F)F)c1ccccc1)c1ccc(Cl)cc1
GI50 (IGROV1 ovarian): 15.5 µM
TGI (IGROV1 ovarian): 43.8 µM
GI50 (HOP-92 NSCLC): 19.1 µM
TGI (HOP-92 NSCLC): 42.1 µM
GI50 (LOX IMVI melanoma): 16 µM
TGI (LOX IMVI melanoma): 32.6 µM
GI50 (PC-3 prostate): 16.1 µM
TGI (PC-3 prostate): 34.2 µM
GI50 (SK-OV-3 ovarian): 36.4 µM
TGI (SK-OV-3 ovarian): > 100 µM
GI50 (MOLT-4 leukemia): 19.9 µM
TGI (MOLT-4 leukemia): 52.5 µM
GI50 (K-562 leukemia): 20.9 µM
TGI (K-562 leukemia): 53.2 µM
GI50 (SF-539 CNS): 22.7 µM
TGI (SF-539 CNS): 47 µM
GI50 (RPMI-8226 leukemia): 9.66 µM
TGI (RPMI-8226 leukemia): 43.1 µM

C[C@H](NC(=O)c1c(C(F)F)nn(C)c1Oc1cccc(C(F)(F)F)c1)c1ccc(C(=O)O)cc1
GI50 (IGROV1 ovarian): > 100 µM
TGI (IGROV1 ovarian): > 100 µM
GI50 (HOP-92 NSCLC): 6.94 µM
TGI (HOP-92 NSCLC): > 100 µM
GI50 (LOX IMVI melanoma): > 100 µM
TGI (LOX IMVI melanoma): > 100 µM
GI50 (PC-3 prostate): > 100 µM
TGI (PC-3 prostate): > 100 µM
GI50 (SK-OV-3 ovarian): > 100 µM
TGI (SK-OV-3 ovarian): > 100 µM
GI50 (HL-60(TB) leukemia): > 100 µM
TGI (HL-60(TB) leukemia): > 100 µM
GI50 (MOLT-4 leukemia): > 100 µM
TGI (MOLT-4 leukemia): > 100 µM
GI50 (SF-539 CNS): > 100 µM
TGI (SF-539 CNS): > 100 µM
GI50 (RPMI-8226 leukemia): > 100 µM
TGI (RPMI-8226 leukemia): > 100 µM
